From patent US8173693B2, “Benzenesulfonamide derivatives and pharmaceutical composition thereof” (Purzer Pharmaceutical Co., Ltd., priority 2010, dated 2012) come the findings set out here.

Some results are limits rather than exact numbers.

Data set [1] deals with Human colorectal adenocarcinoma HT-29 cells. Put plainly: MTT assay. It is filed as cell-based. To be noted: 72 hr. As for the experimental part:
(§1) Human Bladder Cancer TSGH cells, Human hepatoblastoma HepG2 cells, Human colorectal adenocarcinoma HT-29 cells, human nasopharyngeal carcinoma KB cells, Human gastric adenocarcinoma AGS cells, Human breast carcinoma MCF-7 cells, lung carcinoma A549 cells, and Human prostate carcinoma PC-3 cells were used in the preliminary cytotoxicity assays of the benzenesulfonamide derivatives of the present invention, and the inhibition activity against the tumor cells was evaluated.
(§2) All cell lines were maintained in RPMI 1640 supplied with 10% fetal bovine serum and maintained in a humidified chamber at 37° C. containing 5% CO2. Then, all cell lines were treated with compounds for 72 hr and subsequently incubated with 0.4 mg/mL of MTT at 37° C. for 2 hr. The medium was removed, and DMSO was added to dissolve MTT precipitate. Cell proliferation was determined by measuring the optical density at 540 nm using a Thermomax microplate reader (Molecular Devices, Sunnyvale, Calif.), and the IC50 values of the benzenesulfonamide derivatives of the present invention were calculated.
On the technique in general: Tetrazolium dyes change colour on reduction, which living cells bring about.

The test system of data set [2] is human nasopharyngeal carcinoma KB cells. Put plainly: MTT assay. The format is cell-based. To be noted: Homo sapiens, MTT assay; for IC50: KB, 72 hr; for inhibition at 20 µM: KB cells, read-out: Percentage of tumor cells inhibited by 20 μM. As for the experimental part: as §1, §2
Data set [3] concerns Human hepatoblastoma HepG2 cells. Put plainly: MTT assay. The conditions noted are these: 72 hr, read-out: IC50 HepaG2. It is filed as cell-based. How it is done:
as §1, §2

Data set [4] deals with Human Bladder Cancer TSGH cells. Put plainly: MTT assay. It is filed as cell-based. The conditions noted are these: 72 hr. How it is done:
as §1, §2

`O=S(=O)(Nc1cccc2cc[nH]c12)c1ccccc1` [Compound 5a, N-(1H-Indol-7-yl)benzenesulfonamide] displayed a melting point of 178 to 179 °C. In data set [1], the IC50 was 51.9 µM. Further, in data set [2], the IC50 is > 20 µM and the inhibition at 20 µM turned out to be 30%. In addition, the IC50 in data set [3] was found to be 44.7 µM. In addition, 7.5 µM corresponded to half-maximal inhibition in data set [4] (IC50).
The compound `Cc1ccc(S(=O)(=O)Nc2cccc3cc[nH]c23)cc1` [Compound 5b, N-(1H-Indol-7-yl)-4-methylbenzenesulfonamide] gave a melting point of 159 to 160 °C. This compound displayed an IC50 in data set [1] of 7.9 µM. Further, in data set [2], the IC50 is > 20 µM and the inhibition at 20 µM was found to be 39%. The IC50 in data set [3] was 7.9 µM. For the same compound, the IC50 in data set [4] came out at 9.4 µM.
With `COc1ccc(S(=O)(=O)Nc2cccc3cc[nH]c23)cc1` [Compound 5c, N-(1H-Indol-7-yl)-4-methoxybenzenesulfonamide], the melting point lay in the range of 161 to 162 °C. In addition, the IC50 in data set [1] is 1.7 µM. In data set [2], this compound came in with an IC50 of 3.4 µM. Further, the IC50 in data set [3] turned out to be 1.9 µM. This compound displayed an IC50 in data set [4] of 2.4 µM.
In turn, `O=S(=O)(Nc1cccc2cc[nH]c12)c1ccc(Cl)cc1` [Compound 5d, 4-Chloro-N-(1H-indol-7-yl)benzenesulfonamide] yielded a melting point of 163 to 164 °C. The midpoint of inhibition in data set [1], the IC50, lay at 19.8 µM. This compound displayed a half-inhibitory concentration (IC50) in data set [2] of 20 µM. Moreover, in data set [3], the IC50 was 14 µM. For the same compound, in data set [4], the IC50 was 35.6 µM.
The compound `O=[N+]([O-])c1ccc(S(=O)(=O)Nc2cccc3cc[nH]c23)cc1` [Compound 5e, N-(1H-Indol-7-yl)-4-nitrobenzenesulfonamide] came in with a melting point of 185 to 186 °C. The compound also yielded an IC50 in data set [1] of 113 µM. In data set [2], the IC50 was > 20 µM and the inhibition at 20 µM was 14%. The IC50 in data set [3] was 46.9 µM. The compound further displayed an IC50 in data set [4] of 95.6 µM.
Turning to `NS(=O)(=O)c1ccc(S(=O)(=O)Nc2cccc3cc[nH]c23)cc1` [Compound 5g, N-(1H-Indol-7-yl)-4-sulfamoylbenzenesulfonamide], the melting point was 215 to 216 °C. Also, the IC50 in data set [1] is 65.9 µM. Besides, in data set [2], the half-maximal inhibitory concentration (IC50) was > 20 µM and the inhibition at 20 µM is 12%. The half-inhibitory concentration (IC50) in data set [3] turned out to be 39.2 µM. In data set [4], this compound showed an IC50 of 37.5 µM.
As to `O=[N+]([O-])c1ccccc1S(=O)(=O)Nc1cccc2cc[nH]c12` [Compound 5h, N-(1H-Indol-7-yl)-2-nitrobenzenesulfonamide], the melting point is 187 to 188 °C. The compound also came in with an IC50 in data set [1] of 126 µM. For the same compound, in data set [2], the IC50 is > 20 µM and the inhibition at 20 µM was 13%. Further, in data set [3], the IC50 was found to be 87.8 µM. Also, the IC50 in data set [4] was 125 µM.
As to `Cc1ccc(C)c2c1[nH]c1c(NS(=O)(=O)c3ccccc3)cccc12` [Compound 6a, N-(5,8-Dimethyl-9H-carbazol-1-yl)benzenesulfonamide], the melting point lay in the range of 237 to 238 °C. This compound displayed an IC50 in data set [1] of 141 µM. For the same compound, in data set [2], the IC50 is > 20 µM and the inhibition at 20 µM was determined as 32%. Moreover, in data set [3], the IC50 was found to be 66.7 µM. This compound also returned an IC50 in data set [4] of 160 µM.
In turn, `Cc1ccc(S(=O)(=O)Nc2cccc3c2[nH]c2c(C)ccc(C)c23)cc1` [Compound 6b, N-(5,8-Dimethyl-9H-carbazol-1-yl)-4-methylbenzenesulfonamide] returned a melting point of 185 to 186 °C. This compound came in with an IC50 in data set [1] of 1.1 µM. This compound gave an IC50 in data set [2] of 2.5 µM. The IC50 in data set [3] was found to be 1.7 µM. This compound gave an IC50 in data set [4] of 2.1 µM.
With `Cc1ccc(C)c2c1[nH]c1c(NS(=O)(=O)c3ccc(Cl)cc3)cccc12` [Compound 6d, 4-Chloro-N-(5,8-dimethyl-9H-carbazol-1-yl)benzenesulfonamide], the melting point lay within 217 to 218 °C. The IC50 in data set [1] is 81.6 µM. Also, in data set [2], the IC50 was > 20 µM and the inhibition at 20 µM stood at 46%. In data set [3], the IC50 amounted to 34.4 µM. Further, 90 µM corresponded to half-maximal inhibition in data set [4] (IC50).
Consider `Cc1ccc(C)c2c1[nH]c1c(NS(=O)(=O)c3ccc([N+](=O)[O-])cc3)cccc12` [Compound 6e, N-(5,8-Dimethyl-9H-carbazol-1-yl)-4-nitrobenzenesulfonamide], for which the melting point was in the range of 202 to 203 °C. In addition, in data set [1], the IC50 came out at 17.6 µM. Moreover, in data set [2], the IC50 was > 20 µM and the inhibition at 20 µM was 9%. For the same compound, the half-inhibitory concentration (IC50) in data set [3] stood at 19.8 µM. This compound also returned an IC50 in data set [4] of 40.6 µM.
Turning to `Cc1ccc(C)c2c1[nH]c1c(NS(=O)(=O)c3ccc(N)cc3)cccc12` [Compound 6f, 4-Amino-N-(5,8-dimethyl-9H-carbazol-1-yl)benzenesulfonamide], the melting point was in the range of 254 to 255 °C. Moreover, the midpoint of inhibition in data set [1], the IC50, lay at 18.7 µM. Further, in data set [2], the IC50 is > 20 µM and the inhibition at 20 µM was determined as 34%. For the same compound, the IC50 in data set [3] turned out to be 16.6 µM. In addition, the IC50 in data set [4] was 39 µM.
`Cc1ccc(C)c2c1[nH]c1c(NS(=O)(=O)c3ccc(S(N)(=O)=O)cc3)cccc12` [Compound 6g, N-(5,8-Dimethyl-9H-carbazol-1-yl)-4-sulfamoylbenzenesulfonamide]: the melting point was 290 to 291 °C. The same compound returned an IC50 in data set [1] of 124 µM. In data set [2], the IC50 amounted to 19.1 µM. The IC50 in data set [3] was found to be 139 µM. Also, it took 80.7 µM to reach half-maximal inhibition in data set [4] (IC50).
The compound `Cc1ccc(C)c2c1[nH]c1c(NS(=O)(=O)c3ccccc3[N+](=O)[O-])cccc12` [Compound 6h, N-(5,8-Dimethyl-9H-carbazol-1-yl)-2-nitrobenzenesulfonamide] yielded a melting point of 202 to 203 °C. For the same compound, in data set [1], the IC50 turned out to be 17 µM. Further, in data set [2], the IC50 was > 20 µM and the inhibition at 20 µM turned out to be 24%. The IC50 in data set [3] came out at 21 µM. In data set [4], this compound returned an IC50 of 37.2 µM.
As for `COc1cc(S(=O)(=O)Nc2cccc3c2[nH]c2c(C)ccc(C)c23)cc(OC)c1OC` [Compound 6i, N-(5,8-Dimethyl-9H-carbazol-1-yl)-3,4,5-trimethoxybenzenesulfonamide], the melting point fell in the range of 205 to 207 °C.
`Cc1ccc(S(=O)(=O)Nc2cccc3c(/N=N/c4ccccc4)c[nH]c23)cc1` [Compound 7b, 4-Methyl-N-(3-phenylazo-1H-indol-7-yl)benzenesulfonamide] registered a melting point of 212 to 213 °C. Also, the IC50 in data set [1] was 17.9 µM. In data set [2], the IC50 is > 20 µM and the inhibition at 20 µM came to 35%. For the same compound, the IC50 in data set [3] was 30.8 µM. Also, the IC50 in data set [4] was 16 µM.
With `Cc1ccc(C)c2c1[nH]c1c(NC(=O)Nc3ccccc3)cccc12` [Compound 14a, 1-(5,8-Dimethyl-9H-carbazol-1-yl)-3-phenylurea], the melting point was 300 to 301 °C.
As for `COc1ccc(NC(=O)Nc2cccc3c2[nH]c2c(C)ccc(C)c23)cc1` [Compound 14b, 1-(5,8-Dimethyl-9H-carbazol-1-yl)-3-(4-methoxyphenyl)urea], the melting point was 262 to 263 °C.
For `Cc1ccc(C)c2c1[nH]c1c(NS(=O)(=O)c3cc(Cl)c(Oc4ccc([N+](=O)[O-])cc4Cl)c(Cl)c3)cccc12` [Compound 61, 3,5-Dichloro-4-(2-chloro-4-nitrophenoxy)-N-(5,8-dimethyl-9H-carbazol-1-yl)benzenesulfonamide], the melting point turned out to be 249 °C.

Usually IC50 stands for the concentration at which inhibition is half-maximal. Broadly, the melting point is the temperature, or range, at which the solid turns liquid.
